Experiment: Evaluation of wet heat resistance of optical film (change of in-plane retardation Re)
Type: physicochemical
Conditions: HB(C6F5)4 used instead of the additive B-1 of Example 1
Protocol: The optical film manufactured in each of Examples and Comparative Examples was left to stand in an environment at a temperature of 65° C. and a humidity of 90% for 500 hours, and the in-plane retardation Re of the optical film before being left to stand in a wet heat environment (initial Re1) and the in-plane retardation Re of the optical film after being left to stand in a wet heat environment (Re1 after standing) were compared to each other to calculate a Re change rate 1.
Furthermore, the Re change rate 1 is calculated by the following equation.
Re change rate 1(%)={(Initial Re1−Re1 after standing)/Initial Re1}×100
Furthermore, a comparative optical film was manufactured without use of an additive of each of Examples and Comparative Examples, and according to the same procedure as above, the in-plane retardation Re of the comparative optical film before being left to stand in a wet heat environment (initial Re2) and the in-plane retardation Re of the comparative optical film after being left to stand in a wet heat environment (Re2 after standing) were compared to each other to calculate a Re change rate 2.
Furthermore, the Re change rate 2 is calculated by the following equation. […]
A difference between the Re change rate 2 and the Re change rate 1 (Re change rate 2-Re change rate 1) was evaluated according to the following standard. […]

Fc1c(F)c(F)c([B-](c2c(F)c(F)c(F)c(F)c2F)(c2c(F)c(F)c(F)c(F)c2F)c2c(F)c(F)c(F)c(F)c2F)c(F)c1F.[H+] [HB(C6F5)4]
Wet heat resistance (in words): the same extent of effects as in Example 1

Source: patent US20190271885A1, “OPTICAL FILM AND METHOD FOR PRODUCING THE SAME, POLARIZING PLATE, AND IMAGE DISPLAY DEVICE” (FUJIFILM Corporation, priority 2016, published 2019)
